These results are taken from PMC9696366, “Flavones, Flavonols, Lignans, and Caffeic Acid Derivatives from Dracocephalum moldavica and Their In Vitro Effects on Multiple Myeloma and Acute Myeloid Leukemia” (International Journal of Molecular Sciences, 2022).

Holding throughout (assay type): cell-based
One data set concerns KMS-12-PE cells. In words: Apoptosis measurement (AnnexinV/PI staining) on myeloma cells. Particulars: for Cytotoxic effect / induction of apoptosis (in words): 12.5-50 µM; for viability at 12.5 µM / viability at 25 µM / viability at 50 µM / EC50: 48 h; for viability at 12.5 µM / viability at 25 µM / viability at 50 µM: read-out: % Alive (cells alive of control); for EC50: best-fit model. How it is done:
(§1) Cytotoxicity was measured as induction of apoptosis in myeloma cell line KMS-12-PE and AML cell line Molm-13, staining the cells with AnnexinV-fluorescein isothiocyanate (AnnexinV-FITC) and propidium iodide (PI). Cell lines were purchased from DSMZ (Braunschweig, Germany) and routinely fingerprinted and tested for mycoplasma negativity. All cell lines were grown in RPMI-1640 medium (Life Technologies, Paisley, UK), and supplemented with 10% fetal calf serum (FCS; PAA, Linz, Austria), L-glutamine 100 µg/mL, and penicillin-streptomycin 100 U/mL. Compounds were dissolved in DMSO at a stock concentration of 50 mM and stored at −20 °C. Briefly, 0.5 × 10^6 cancer cells/mL were incubated for 24 h and 48 h with or without the tested compounds at indicated concentrations. Analyses were performed in duplicates and a solvent control was included. The extent of non-apoptotic cells (AnnexinV/propidium iodide negativity) was calculated as the percentage of viable cells in respect to the untreated control. Data are shown as the mean percentage of viable cells +/− standard deviation (SD) (error bars).

Data set [1] deals with Molm-13 cells. In words: Apoptosis measurement (AnnexinV/PI staining) on AML cells. Particulars: for EC50 / viability at 12.5 µM / viability at 25 µM / viability at 50 µM: Homo sapiens; for EC50: MOLM-13, 48 h, best-fit model; for viability at 12.5 µM: Molm-13, 12.5 µM; for viability at 12.5 µM / viability at 25 µM / viability at 50 µM: 48 h, read-out: % Alive (cells alive of control); for viability at 25 µM: Molm-13, 25 µM; for viability at 50 µM: Molm-13, 50 µM; for Cytotoxic effect / induction of apoptosis (in words): Molm-13, 12.5-50 µM. On the procedure: as §1

Data set [2] deals with Molm-13 cells. The data set can be described thus: Proliferation, modified MTT assay (EZ4U) on AML cells. Particulars: Molm-13, 2.5 µM, 48 h, positive control. How it is done:
Proliferation was measured using a modified MTT assay (EZ4U kit, Biomedica, Vienna, Austria) according to the manufacturer’s instructions. In brief, 2.5 × 10^4 (Molm-13)—5.0 × 10^4 cells (KMS-12-PE cells) were seeded in 96-well plates and substances were added as indicated. Different concentrations are due to the different doubling time of the cells (24 h vs. 48 h). Cells were incubated for 48 h and during the last 7 h of incubation, 3-(4,5-dimethylthiazol-2-yl)-2,5-diphenyltetrazolium bromide was added as a substrate. Reduction of the tetrazolium salt to formazan by the mitochondrial activity of the growing cells was measured as optical density at 492 nm (with 620 nm as reference) on a plate reader. Proliferation (mean +/− SD) was calculated as the percentage of control (without substances). Concentrations used were 10 µM/5 µM/2.5 µM for all substances. Gilteritinib was used as a positive control at 2.5 µM.
On the technique in general: Formazan colour is commonly taken as a measure of viable cells.

Where only a bound is given, the exact number is not on record here.

By EC50 is commonly meant the concentration needed to bring the measured effect to its halfway point. Low values mean a more potent agent, high ones a less potent agent. `COc1ccc(-c2cc(=O)c3c(O)c(OC)c(OC)cc3o2)cc1OC` [Compound 2, 5-desmethylsinensetin]: the “Cytotoxic effect / induction of apoptosis (in words)” value (“Cytotoxic effect / induction” for short) with KMS-12-PE cells is listed as “no effects”. In the data set with KMS-12-PE cells (Homo sapiens), the viability at 12.5 µM was found to be 94.6 ± 10.2%, the viability at 25 µM worked out at 93.4 ± 9.3%, the viability at 50 µM amounted to 93.1 ± 10.2% and the EC50 is > 50 µM. In addition, in the data set with Molm-13 cells [1], the half-maximal effective concentration (EC50) is > 50 µM, the viability at 12.5 µM was 91.1 ± 3.4%, the viability at 25 µM turned out to be 90.9 ± 0.4% and the viability at 50 µM came to 88.6 ± 1.8%. The “Cytotoxic effect / induction” value with Molm-13 cells [1] is “no effects”.
`O=c1cc(-c2ccc(O)cc2)oc2cc(O)cc(O)c12` [Compound 4, apigenin]: in the data set on KMS-12-PE cells (Homo sapiens), the viability at 12.5 µM stood at 85.5 ± 10.6%, the viability at 25 µM was 69.4 ± 31.3%, the viability at 50 µM turned out to be 59.6 ± 16.1% and the EC50 was > 50 µM. In the data set with Molm-13 cells [1], the EC50 is > 50 µM, the viability at 12.5 µM is 98 ± 1.6%, the viability at 25 µM stood at 89.5 ± 3.9% and the viability at 50 µM is 58.4 ± 14.2%.
As for `O=c1cc(-c2ccc(O)c(O)c2)oc2cc(O)cc(O)c12` [Compound 5, luteolin], in the data set on KMS-12-PE cells (Homo sapiens), the viability at 12.5 µM worked out at 80.3 ± 5.4%, the viability at 25 µM was 70.5 ± 5.6%, the viability at 50 µM is 50.3 ± 18.4% and the EC50 was > 50 µM. In addition, in the data set with Molm-13 cells [1], the EC50 came out at 42.3 µM, the viability at 12.5 µM turned out to be 86.5 ± 5.2%, the viability at 25 µM turned out to be 72.4 ± 4% and the viability at 50 µM turned out to be 30.2 ± 13.7%.
Molecule `COc1ccc(-c2cc(=O)c3c(O)cc(O)cc3o2)cc1O` [Compound 6, diosmetin] gave an EC50 in the data set on KMS-12-PE cells of 25.7 µM. Further, in the data set on KMS-12-PE cells (Homo sapiens), the viability at 12.5 µM is 77.3 ± 6.9%, the viability at 25 µM was 44.2 ± 19%, the viability at 50 µM was found to be 31.1 ± 5.3% and the concentration for a half-maximal effect (EC50) stood at 26 µM. Moreover, in the data set on Molm-13 cells [1], the EC50 is > 50 µM, the viability at 12.5 µM was found to be 91.5 ± 2.8%, the viability at 25 µM was 76.2 ± 6.7% and the viability at 50 µM turned out to be 39.8 ± 5.8%.
As to `O=c1c(O)c(-c2ccc(O)cc2)oc2cc(O)cc(O)c12` [Compound 7, kaempferol], the “Cytotoxic effect / induction” value in the data set on KMS-12-PE cells is reported as “induced apoptosis”. For the same molecule, in the data set with KMS-12-PE cells (Homo sapiens), the viability at 12.5 µM came to 98 ± 2.7%, the viability at 25 µM was determined as 91.2 ± 15%, the viability at 50 µM is 76.3 ± 17.3% and the EC50 is > 50 µM. In addition, in the data set with Molm-13 cells [1], the EC50 was > 50 µM, the viability at 12.5 µM was found to be 93.1 ± 5.1%, the viability at 25 µM came out at 83.1 ± 5.7% and the viability at 50 µM is 50.2 ± 11.4%. Further, the “Cytotoxic effect / induction” value with Molm-13 cells [1] was “induced apoptosis”.
With `O=c1c(O)c(-c2ccc(O)c(O)c2)oc2cc(O)cc(O)c12` [Compound 8, quercetin], the “Cytotoxic effect / induction” value in the data set on KMS-12-PE cells was “induced apoptosis”. In addition, in the data set with KMS-12-PE cells (Homo sapiens), the viability at 12.5 µM worked out at 96.6 ± 2.7%, the viability at 25 µM came to 79 ± 4.8%, the viability at 50 µM is 43.7 ± 8.3% and the EC50 is > 50 µM. Also, in the data set on Molm-13 cells [1], the concentration giving a half-maximal response (EC50) was > 50 µM, the viability at 12.5 µM was determined as 100 ± 2.2%, the viability at 25 µM was 94.4 ± 3.9% and the viability at 50 µM worked out at 79.8 ± 10.2%. For the same molecule, the “Cytotoxic effect / induction” value in the data set with Molm-13 cells [1] was “induced apoptosis”.
As for `COc1cc([C@H]2OC[C@H]3[C@@H]2CO[C@@H]3c2ccc3c(c2)OCO3)ccc1O` [Compound 9, (+)-piperitol], in the data set on KMS-12-PE cells (Homo sapiens), the viability at 12.5 µM came to 102.8 ± 0.8%, the viability at 25 µM was 100.1 ± 0.8%, the viability at 50 µM is 97.1 ± 4.1% and the EC50 is > 50 µM. Further, in the data set with Molm-13 cells [1], the EC50 was > 50 µM, the viability at 12.5 µM stood at 102 ± 1.3%, the viability at 25 µM amounted to 100 ± 2.1% and the viability at 50 µM amounted to 97.5 ± 2.4%.
For the molecule `O[C@@H]1O[C@H](c2ccc3c(c2)OCO3)[C@H]2CO[C@H](c3ccc4c(c3)OCO4)[C@H]21` [Compound 10, (+)-9α-hydroxysesamin], in the data set with KMS-12-PE cells (Homo sapiens), the viability at 12.5 µM stood at 99 ± 0.6%, the viability at 25 µM turned out to be 96.7 ± 0.5%, the viability at 50 µM amounted to 89.4 ± 0.8% and the EC50 is > 50 µM. In addition, in the data set with Molm-13 cells [1], the EC50 was > 50 µM, the viability at 12.5 µM amounted to 101 ± 1.4%, the viability at 25 µM amounted to 100 ± 2% and the viability at 50 µM was 98.7 ± 1.7%.
In the case of `O=C(O)/C=C/c1ccc(O)c(O)c1` [Compound 11, caffeic acid], in the data set on KMS-12-PE cells (Homo sapiens), the viability at 12.5 µM came out at 102 ± 1.8%, the viability at 25 µM was found to be 102.5 ± 0.9%, the viability at 50 µM was 102.6 ± 0.5% and the EC50 is > 50 µM. Besides, in the data set with Molm-13 cells [1], the EC50 was > 50 µM, the viability at 12.5 µM came out at 96.9 ± 4.6%, the viability at 25 µM was 98.1 ± 3.8% and the viability at 50 µM was found to be 98.8 ± 2.8%.
On to `O=C(/C=C/c1ccc(O)c(O)c1)O[C@H](Cc1ccc(O)c(O)c1)C(=O)O` [Compound 12, (R)-(+)-rosmarinic acid], for which, in the data set with KMS-12-PE cells (Homo sapiens), the viability at 12.5 µM was 100.2 ± 0.9%, the viability at 25 µM came to 102 ± 1.5%, the viability at 50 µM was determined as 98.2 ± 1.5% and the concentration giving a half-maximal response (EC50) was > 50 µM. In the data set on Molm-13 cells [1], the EC50 is > 50 µM, the viability at 12.5 µM was 97.6 ± 3.2%, the viability at 25 µM turned out to be 98.5 ± 3.6% and the viability at 50 µM was 100.8 ± 0.6%.
With `COc1cc(/C=C/C(=O)O[C@H](Cc2ccc(O)c(O)c2)C(=O)O)ccc1O` [Compound 13, (R)-(+)-3′-O-methylrosmarinic acid], in the data set with KMS-12-PE cells (Homo sapiens), the viability at 12.5 µM came out at 102 ± 1.6%, the viability at 25 µM worked out at 101 ± 1.8%, the viability at 50 µM was determined as 101 ± 3.4% and the EC50 was > 50 µM. Also, in the data set with Molm-13 cells [1], the EC50 was > 50 µM, the viability at 12.5 µM worked out at 99.6 ± 2.6%, the viability at 25 µM was found to be 99.4 ± 1.9% and the viability at 50 µM amounted to 97.8 ± 4%.
Turning to `CCc1nc(C(N)=O)c(Nc2ccc(N3CCC(N4CCN(C)CC4)CC3)c(OC)c2)nc1NC1CCOCC1` [gilteritinib, reference compound], the “Effect on proliferation (in words)” value in the data set on Molm-13 cells [2] was “high effect”.
